For 15 molecules, MIC and PAE results are on record in patent publication US20220213047A1, “CARBONIC ANHYDRASE INHIBITORS FOR TREATMENT OF NEISSERIA GONORRHOEAE INFECTION” (Purdue Research Foundation, priority 2021, published 2022).

Assay [1] concerns N. gonorrhoeae. The experiment in a line: MIC against N. gonorrhoeae clinical isolates, normal and CO2 conditions. In kind it is cell-based. Conditions: Neisseria gonorrhoeae. The procedure:
(§1) These tests were performed in normal culture conditions with standard CO2 levels and in CO2 (5% in incubator) conditions.

The subject of assay [2] is N. gonorrhoeae. Description: Post-antibiotic effect (PAE). In kind it is cell-based. Conditions: after exposure to 10×MIC for 1 hour.
In the next assay the test system is ATCC strain 700825. The experiment in a line: MICs against ATCC strain 700825. Type of assay: cell-based, N. gonorrhoeae. Particulars: Neisseria gonorrhoeae. The procedure:
as §1

Where [3] appears, read: N. gonorrhoeae 178, Non CO2 environment.
Setting [4] is: N. gonorrhoeae 178, normal growth environment (with CO2).
Where [5] appears, read: N. gonorrhoeae 181, Non CO2 environment.
[6] abbreviates: N. gonorrhoeae 181, normal growth environment (with CO2).
The mark [7] stands for this setting: N. gonorrhoeae 194, Non CO2 environment.
[8] abbreviates: N. gonorrhoeae 194, normal growth environment (with CO2).

Converted amounts (≈) assume the structure as drawn.

One may read the MIC as the lowest concentration found to suppress growth. The low end stands for greater potency, the high end for weaker potency. On to `CCN[C@H]1C[C@H](C)S(=O)(=O)c2sc(S(N)(=O)=O)cc21` [Dorzolamide], for which the MIC with N. gonorrhoeae [1] (setting [3]) is 32 µg/mL (≈ 98.6 µM); with N. gonorrhoeae [1] (setting [4]) it was more than 64 µg/mL; in the assay on N. gonorrhoeae [1] (setting [5]), more than 64 µg/mL; with N. gonorrhoeae [1] (setting [6]), more than 64 µg/mL; in the assay with N. gonorrhoeae [1] (setting [7]), more than 64 µg/mL; with N. gonorrhoeae [1] (setting [8]), more than 64 µg/mL.
As for `CC(C)=CC(=O)Nc1nnc(S(N)(=O)=O)s1` [CAI 0016], the MIC was 16 µg/mL (≈ 61 µM) in the assay with N. gonorrhoeae [1] (setting [3]); 64 µg/mL (≈ 244 µM) against N. gonorrhoeae [1] (setting [4]); 16 µg/mL (≈ 61 µM) with N. gonorrhoeae [1] (setting [5]); 32 µg/mL (≈ 122 µM) against N. gonorrhoeae [1] (setting [6]); 32 µg/mL (≈ 122 µM) against N. gonorrhoeae [1] (setting [7]); 64 µg/mL (≈ 244 µM) in the assay on N. gonorrhoeae [1] (setting [8]).
On to `NS(=O)(=O)c1nnc(NC(=O)CC2CCCC2)s1` [CAI 0021], for which the MIC was 2 µg/mL (≈ 6.89 µM) in the assay with N. gonorrhoeae [1] (setting [3]); 64 µg/mL (≈ 220 µM) against N. gonorrhoeae [1] (setting [4]); 1 µg/mL (≈ 3.44 µM) against N. gonorrhoeae [1] (setting [5]); more than 64 µg/mL with N. gonorrhoeae [1] (setting [6]); 4 µg/mL (≈ 13.8 µM) in the assay on N. gonorrhoeae [1] (setting [7]); more than 64 µg/mL against N. gonorrhoeae [1] (setting [8]).
With `CCCC(=O)Nc1nnc(S(N)(=O)=O)s1` [CAI 0013], the MIC was 8 µg/mL (≈ 32 µM) against N. gonorrhoeae [1] (setting [4]); 8 µg/mL (≈ 32 µM) with N. gonorrhoeae [1] (setting [5]); 32 µg/mL (≈ 128 µM) with N. gonorrhoeae [1] (setting [6]); 4 µg/mL (≈ 16 µM) in the assay with N. gonorrhoeae [1] (setting [7]); 8 µg/mL (≈ 32 µM) with N. gonorrhoeae [1] (setting [8]).
Regarding `CC[C@H]1OC(=O)[C@H](C)[C@@H](O[C@H]2C[C@@](C)(OC)[C@@H](O)[C@H](C)O2)[C@H](C)[C@@H](O[C@@H]2O[C@H](C)C[C@H](N(C)C)[C@H]2O)[C@](C)(O)C[C@@H](C)CN(C)[C@H](C)[C@@H](O)[C@]1(C)O` [Azithromycin], the MIC is 0.25 µg/mL (≈ 0.334 µM) against N. gonorrhoeae [1] (setting [3]); 1 µg/mL (≈ 1.34 µM) in the assay on N. gonorrhoeae [1] (setting [4]); more than 128 µg/mL in the assay with N. gonorrhoeae [1] (setting [5]); more than 128 µg/mL in the assay on N. gonorrhoeae [1] (setting [6]); 0.25 µg/mL (≈ 0.334 µM) against N. gonorrhoeae [1] (setting [7]); 0.5 µg/mL (≈ 0.668 µM) in the assay with N. gonorrhoeae [1] (setting [8]). Also, the PAE in the assay on N. gonorrhoeae [2] (Ng 181), in the assay on N. gonorrhoeae [2] (Ng 186), in the assay on N. gonorrhoeae [2] (Ng 194), in the assay on N. gonorrhoeae [2] (Ng 198) and in the assay on N. gonorrhoeae [2] (clinical isolates of N. gonorrhoeae) was 8 h in each case.
For `CC(C)CC(=O)Nc1nnc(S(N)(=O)=O)s1` [CAI 0026], the MIC with N. gonorrhoeae [1] (setting [3]) is 8 µg/mL (≈ 30.3 µM); against N. gonorrhoeae [1] (setting [4]), 32 µg/mL (≈ 121 µM); with N. gonorrhoeae [1] (setting [5]) it was 8 µg/mL (≈ 30.3 µM); with N. gonorrhoeae [1] (setting [6]), more than 64 µg/mL; against N. gonorrhoeae [1] (setting [7]), 4 µg/mL (≈ 15.1 µM); in the assay with N. gonorrhoeae [1] (setting [8]), more than 64 µg/mL.
For the molecule `NS(=O)(=O)c1nnc(NC(=O)C2CCCCC2)s1` [CAI 0022], the MIC is 4 µg/mL (≈ 13.8 µM) with N. gonorrhoeae [1] (setting [3]); 32 µg/mL (≈ 110 µM) with N. gonorrhoeae [1] (setting [4]); 2 µg/mL (≈ 6.89 µM) in the assay on N. gonorrhoeae [1] (setting [5]); 64 µg/mL (≈ 220 µM) in the assay with N. gonorrhoeae [1] (setting [6]); 4 µg/mL (≈ 13.8 µM) against N. gonorrhoeae [1] (setting [7]); more than 64 µg/mL in the assay with N. gonorrhoeae [1] (setting [8]).
Consider `NS(=O)(=O)c1nnc(NC(=O)CCC2CCCC2)s1` [CAI 0015], for which the MIC is 2 µg/mL (≈ 6.57 µM) in the assay on N. gonorrhoeae [1] (setting [3]); 16 µg/mL (≈ 52.6 µM) in the assay with N. gonorrhoeae [1] (setting [4]); 1 µg/mL (≈ 3.29 µM) against N. gonorrhoeae [1] (setting [5]); more than 64 µg/mL against N. gonorrhoeae [1] (setting [6]); 4 µg/mL (≈ 13.1 µM) in the assay on N. gonorrhoeae [1] (setting [7]); 64 µg/mL (≈ 210 µM) in the assay with N. gonorrhoeae [1] (setting [8]).
Take `NS(=O)(=O)c1nnc(NC(=O)c2cccc(C(F)(F)F)c2)s1` [CAI 0038]: the minimum inhibitory concentration (MIC) against N. gonorrhoeae [1] (setting [3]) was 1 µg/mL (≈ 2.84 µM); against N. gonorrhoeae [1] (setting [4]), more than 64 µg/mL; against N. gonorrhoeae [1] (setting [5]) it was 4 µg/mL (≈ 11.4 µM); in the assay with N. gonorrhoeae [1] (setting [6]), 64 µg/mL (≈ 182 µM); against N. gonorrhoeae [1] (setting [7]), 2 µg/mL (≈ 5.68 µM); with N. gonorrhoeae [1] (setting [8]), more than 64 µg/mL.
Regarding `NS(=O)(=O)c1nnc(NC(=O)CCC2CCCCC2)s1` [CAI 0019], the MIC was 4 µg/mL (≈ 12.6 µM) with N. gonorrhoeae [1] (setting [3]); 64 µg/mL (≈ 201 µM) in the assay with N. gonorrhoeae [1] (setting [4]); 1 µg/mL (≈ 3.14 µM) against N. gonorrhoeae [1] (setting [5]); 64 µg/mL (≈ 201 µM) with N. gonorrhoeae [1] (setting [6]); 2 µg/mL (≈ 6.28 µM) against N. gonorrhoeae [1] (setting [7]); more than 64 µg/mL against N. gonorrhoeae [1] (setting [8]). For the same molecule, the MIC with ATCC strain 700825 (ATCC700825, In CO2) came out at 32 µg/mL (≈ 100 µM); in the assay on ATCC strain 700825 (ATCC700825, In air), 4 µg/mL (≈ 12.6 µM).
Turning to `NS(=O)(=O)c1nnc(NC(=O)CC2CC2)s1` [CAI 0040], the MIC against ATCC strain 700825 (ATCC700825, In CO2) came out at 32 µg/mL (≈ 122 µM); against ATCC strain 700825 (ATCC700825, In air), 16 µg/mL (≈ 61 µM).
For `NS(=O)(=O)c1nnc(NC(=O)CN2CCCC2)s1` [CAI 0037], the MIC in the assay with N. gonorrhoeae [1] (setting [3]), against N. gonorrhoeae [1] (setting [4]), against N. gonorrhoeae [1] (setting [5]), against N. gonorrhoeae [1] (setting [6]), against N. gonorrhoeae [1] (setting [7]) and in the assay on N. gonorrhoeae [1] (setting [8]) was more than 64 µg/mL throughout.
Turning to `NS(=O)(=O)c1nnc(NC(=O)C2CC2)s1` [CAI 0020], the MIC in the assay on N. gonorrhoeae [1] (setting [3]) was 2 µg/mL (≈ 8.06 µM); against N. gonorrhoeae [1] (setting [4]) it was 64 µg/mL (≈ 258 µM); against N. gonorrhoeae [1] (setting [5]), 2 µg/mL (≈ 8.06 µM); against N. gonorrhoeae [1] (setting [6]) it was 64 µg/mL (≈ 258 µM); in the assay on N. gonorrhoeae [1] (setting [7]) it was 4 µg/mL (≈ 16.1 µM); in the assay on N. gonorrhoeae [1] (setting [8]) it was more than 64 µg/mL.
With `NS(=O)(=O)c1nnc(NC(=O)CCc2ccccc2)s1` [CAI 0041], the MIC in the assay with ATCC strain 700825 (ATCC700825, In CO2) was determined as 4 µg/mL (≈ 12.8 µM); against ATCC strain 700825 (ATCC700825, In air), 0.5 µg/mL (≈ 1.6 µM).
`NS(=O)(=O)c1nnc(NC(=O)C2CCC2)s1` [CAI 0018]: the MIC with N. gonorrhoeae [1] (setting [3]) is 16 µg/mL (≈ 61 µM); in the assay with N. gonorrhoeae [1] (setting [4]), 64 µg/mL (≈ 244 µM); in the assay on N. gonorrhoeae [1] (setting [5]), 16 µg/mL (≈ 61 µM); against N. gonorrhoeae [1] (setting [6]) it was more than 64 µg/mL; against N. gonorrhoeae [1] (setting [7]) it was 8 µg/mL (≈ 30.5 µM); in the assay on N. gonorrhoeae [1] (setting [8]), 32 µg/mL (≈ 122 µM).
